We go through 29 molecules from patent publication US20120202794A1 (priority 2011, published 2012).

The nature of series [1]: Cell cytotoxicity assay (MTS), CC90 as reported in Table 1, cell line not stated. As to conditions: human; cell line not given. The class given is cell-based. A digest of the protocol: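 MTS read-out (490 nm, 2 h dye step) after 8-day exposure at 37° C. Huh7, HepG2, BxPC3 were seeded at 2×10^3 and CEM at 5×10^3 cells/well, with compound serially diluted from 100 μM. CC90 comes from comparison with untreated control wells.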

The next series concerns HCV Replicon 1b. The series is described as follows: HCV inhibition assay, HCV replicon 1b (Clone A or ET-lunet cells; RT-PCR or luciferase reporter). The format is cell-based. As to conditions: Hepatitis C virus, 96 h, HCV replicon 1b; 4 days incubation; read-out: Replicon 1b potency EC90. A digest of the protocol: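 Inhibition read either as luciferase signal (ET replicon) or as HCV 5′-NTR RNA by RT-PCR relative to rRNA, % = (1−2^−ΔΔCt)×100, against DMSO controls, giving EC50 and EC90. Cells: Clone A or ET-lunet, seeded 1500 or 3000/well, exposed 4 days at 37 °C, 5% CO2, 0.5% DMSO.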
(In antiviral work, replicon cells carry a viral genome segment that copies itself.)

As to `CC(C)C[C@H]1CN(Cc2ccc(OC(F)(F)F)cc2)[C@@H](CC(C)C)C(=O)N1` [Compound 228, (3S,6S)-3,6-Diisobutyl-4-(4-trifluoromethoxy-benzyl)-piperazin-2-one], the CC90 at 8 days in series [1] was > 10000 nM. For the same molecule, the concentration for an effect of 90% (EC90) (usually the point of the concentration-response curve where the effect stands at 90%) in the series on HCV Replicon 1b amounted to 3260 nM.
Taken in the same sequence, the figures for `CC(C)C[C@H]1CN(Cc2cc(C(F)(F)F)ccc2Cl)[C@@H](CC(C)C)C(=O)N1` [Compound 229, (3S,6S)-4-(2-Chloro-5-trifluoromethyl-benzyl)-3,6-diisobutyl-piperazin-2-one] were > 10000 nM and 5120 nM.
On to `CCC[C@H]1CN(C(=O)[C@@H]2C[C@H]2c2ccccc2)[C@@H](CC(C)C)C(=O)N1` [Compound 230, (3S,6S)-3-isobutyl-4-((1R,2R)-2-phenylcyclopropanecarbonyl)-6-propylpiperazin-2-one], for which the CC90 at 8 days in series [1] was > 10000 nM. For the same molecule, the EC90 in the series with HCV Replicon 1b came to 570 nM.
With `CC(C)C[C@H]1C(=O)N[C@@H](C2CCCCC2)CN1C(=O)[C@@H]1C[C@H]1c1ccccc1` [Compound 231, (3S,6S)-6-cyclohexyl-3-isobutyl-4-((1R,2R)-2-phenylcyclopropanecarbonyl)-piperazin-2-one], the CC90 at 8 days in series [1] was > 10000 nM. In addition, the EC90 in the series on HCV Replicon 1b came to 930 nM.
Regarding `CC(C)C[C@H]1C(=O)N[C@@H](C2CCCC2)CN1C(=O)[C@@H]1C[C@H]1c1ccccc1` [Compound 232, (3S,6S)-6-cyclopentyl-3-isobutyl-4-((1R,2R)-2-phenylcyclopropanecarbonyl)-piperazin-2-one], in series [1], the CC90 at 8 days is > 10000 nM. Also, the concentration for an effect of 90% (EC90) in the series on HCV Replicon 1b was found to be 690 nM.
The corresponding values for `CC(C)C[C@H]1C(=O)N[C@@H](C(C)C)CN1C(=O)[C@@H]1C[C@H]1c1ccccc1` [Compound 233, (3S,6S)-3-isobutyl-6-isopropyl-4-((1R,2R)-2-phenylcyclopropanecarbonyl)piperazin-2-one] are > 10000 nM and 930 nM.
The corresponding values for `CC(C)C[C@H]1C(=O)N[C@@H](c2ccccc2)CN1C(=O)[C@@H]1C[C@H]1c1ccccc1` [Compound 234, (3S,6S)-3-isobutyl-6-phenyl-4-((1R,2R)-2-phenylcyclopropanecarbonyl)piperazin-2-one] are > 10000 nM and 300 nM.
For the molecule `CC(C)C[C@H]1C(=O)N[C@@H](C2CC2)CN1C(=O)[C@@H]1C[C@H]1c1ccccc1` [Compound 235, (3S,6S)-6-cyclopropyl-3-isobutyl-4-((1R,2R)-2-phenylcyclopropanecarbonyl)-piperazin-2-one], the CC90 at 8 days in series [1] is > 10000 nM. Moreover, the 90% effect concentration (EC90) with HCV Replicon 1b was found to be 4200 nM.
On to `CC(C)C[C@H]1CN(C(=O)[C@@H]2C[C@H]2c2ccc(F)cc2)[C@@H](CC(C)C)C(=O)N1` [Compound 236, (3S,6S)-4-[(1R,2R)-2-(4-Fluoro-phenyl)-cyclopropanecarbonyl]-3,6-diisobutyl-piperazin-2-one], for which the CC90 at 8 days in series [1] was > 10000 nM. In addition, the EC90 with HCV Replicon 1b was found to be 80 nM.
The corresponding values for `CC(C)C[C@H]1CN(C(=O)[C@@H]2C[C@H]2c2ccc(Cl)cc2)[C@@H](CC(C)C)C(=O)N1` [Compound 237, (3S,6S)-4-[(1R,2R)-2-(4-Chloro-phenyl)-cyclopropanecarbonyl]-3,6-diisobutyl-piperazin-2-one] are > 10000 nM and 270 nM.
Taken in the same sequence, the figures for `CC(C)C[C@H]1CN(C(=O)[C@@H]2C[C@H]2c2ccc(F)c(F)c2)[C@@H](CC(C)C)C(=O)N1` [Compound 238, (3S,6S)-4-[(1R,2R)-2-(3,4-Difluoro-phenyl)-cyclopropanecarbonyl]-3,6-diisobutyl-piperazin-2-one] were > 10000 nM and 590 nM.
With `COc1ccc([C@@H]2C[C@H]2C(=O)N2C[C@H](CC(C)C)NC(=O)[C@@H]2CC(C)C)cc1` [Compound 239, (3S,6S)-3,6-Diisobutyl-4-[(1R,2R)-2-(4-methoxy-phenyl)-cyclopropanecarbonyl]-piperazin-2-one], the CC90 at 8 days in series [1] was > 10000 nM. Further, in the series with HCV Replicon 1b, the concentration for an effect of 90% (EC90) was 960 nM.
The corresponding values for `CCC[C@H]1CN(C(=O)[C@@H]2C[C@H]2c2ccc(F)cc2)[C@@H](CC(C)C)C(=O)N1` [Compound 240, (3S,6S)-4-[(1R,2R)-2-(4-Fluoro-phenyl)-cyclopropanecarbonyl]-3-isobutyl-6-propyl-piperazin-2-one] are > 10000 nM and 100 nM.
The corresponding values for `CC(C)C[C@H]1C(=O)N[C@@H](C2CCCCC2)CN1C(=O)[C@@H]1C[C@H]1c1ccc(F)cc1` [Compound 241, (3S,6S)-6-Cyclohexyl-4-[(1R,2R)-2-(4-fluoro-phenyl)-cyclopropanecarbonyl]-3-isobutyl-piperazin-2-one] are > 10000 nM and 150 nM.
Taken in the same sequence, the figures for `CC(C)C[C@H]1C(=O)N[C@@H](C2CCCC2)CN1C(=O)[C@@H]1C[C@H]1c1ccc(F)cc1` [Compound 242, (3S,6S)-6-Cyclopentyl-4-[(1R,2R)-2-(4-fluoro-phenyl)-cyclopropanecarbonyl]-3-isobutyl-piperazin-2-one] were > 10000 nM and 60 nM.
As to `CC(C)C[C@H]1C(=O)N[C@@H](CC2CC2)CN1C(=O)[C@@H]1C[C@H]1c1ccc(Cl)cc1` [Compound 243, (3S,6S)-4-[(1R,2R)-2-(4-Chloro-phenyl)-cyclopropanecarbonyl]-6-cyclopropylmethyl-3-isobutyl-piperazin-2-one], the CC90 at 8 days in series [1] was > 10000 nM. In addition, the EC90 with HCV Replicon 1b came to 430 nM.
Consider `CCC[C@H]1CN(C(=O)[C@@H]2C[C@H]2c2ccc(Cl)cc2)[C@@H](CC(C)C)C(=O)N1` [Compound 244, (3S,6S)-4-[(1R,2R)-2-(4-Chloro-phenyl)-cyclopropanecarbonyl]-3-isobutyl-6-propyl-piperazin-2-one], for which the CC90 at 8 days in series [1] is > 10000 nM. In addition, the EC90 in the series on HCV Replicon 1b worked out at 70 nM.
The corresponding values for `CC(C)C[C@H]1C(=O)N[C@@H](C2CCCCC2)CN1C(=O)[C@@H]1C[C@H]1c1ccc(Cl)cc1` [Compound 245, (3S,6S)-4-[(1R,2R)-2-(4-Chloro-phenyl)-cyclopropanecarbonyl]-6-cyclohexyl-3-isobutyl-piperazin-2-one] are > 10000 nM and 620 nM.
`CC(C)C[C@H]1C(=O)N[C@@H](C2CCCC2)CN1C(=O)[C@@H]1C[C@H]1c1ccc(Cl)cc1` [Compound 246, (3S,6S)-4-[(1R,2R)-2-(4-Chloro-phenyl)-cyclopropanecarbonyl]-6-cyclopentyl-3-isobutyl-piperazin-2-one]: in series [1], the CC90 at 8 days is > 10000 nM. Also, the EC90 in the series on HCV Replicon 1b was 200 nM.
Taken in the same sequence, the figures for `CC(C)C[C@H]1C(=O)N[C@@H](c2ccccc2)CN1C(=O)[C@@H]1C[C@H]1c1ccc(F)cc1` [Compound 247, (3S,6S)-4-[(1R,2R)-2-(4-Fluoro-phenyl)-cyclopropanecarbonyl]-3-isobutyl-6-phenyl-piperazin-2-one] were > 10000 nM and 50 nM.
In the case of `CC(C)C[C@H]1C(=O)N[C@@H](c2ccccc2)CN1C(=O)[C@@H]1C[C@H]1c1ccc(Cl)cc1` [Compound 248, (3S,6S)-4-[(1R,2R)-2-(4-Chloro-phenyl)-cyclopropanecarbonyl]-3-isobutyl-6-phenyl-piperazin-2-one], the CC90 at 8 days in series [1] was > 10000 nM. Also, the EC90 in the series on HCV Replicon 1b was 160 nM.
On to `CC(C)C[C@H]1CN(C(=O)[C@@H]2C[C@H]2c2ccc(C(C)(C)C)cc2)[C@@H](CC(C)C)C(=O)N1` [Compound 249, (3S,6S)-4-[(1R,2R)-2-(4-tert-Butyl-phenyl)-cyclopropanecarbonyl]-3,6-diisobutyl-piperazin-2-one], for which the CC90 at 8 days in series [1] is > 10000 nM. Also, the EC90 in the series on HCV Replicon 1b stood at 750 nM.
Taken in the same sequence, the figures for `CC(C)C[C@H]1CN(C(=O)[C@@H]2C[C@H]2c2ccc(Cl)cc2F)[C@@H](CC(C)C)C(=O)N1` [Compound 250, (3S,6S)-4-[(1R,2R)-2-(4-Chloro-2-fluoro-phenyl)-cyclopropanecarbonyl]-3,6-diisobutyl-piperazin-2-one] were > 10000 nM and 360 nM.
Regarding `CCC[C@H]1CN(C(=O)[C@@H]2C[C@H]2c2ccc(Cl)cc2F)[C@@H](CC(C)C)C(=O)N1` [Compound 251], the CC90 at 8 days in series [1] is > 10000 nM. For the same molecule, the concentration for an effect of 90% (EC90) in the series with HCV Replicon 1b was determined as 200 nM.
Taken in the same sequence, the figures for `CC(C)C[C@H]1C(=O)N[C@@H](C2CCCCC2)CN1C(=O)[C@@H]1C[C@H]1c1ccc(Cl)cc1F` [Compound 252] were > 10000 nM and 670 nM.
The corresponding values for `CC(C)C[C@H]1C(=O)N[C@@H](C2CCCC2)CN1C(=O)[C@@H]1C[C@H]1c1ccc(Cl)cc1F` [Compound 253, (3S,6S)-4-[(1R,2R)-2-(4-Chloro-2-fluoro-phenyl)-cyclopropanecarbonyl]-6-cyclopentyl-3-isobutyl-piperazin-2-one] are > 10000 nM and 500 nM.
In the case of `CC(C)C[C@H]1C(=O)N[C@@H](C(C)C)CN1C(=O)[C@@H]1C[C@H]1c1ccc(Cl)cc1F` [Compound 254, (3S,6S)-4-[(1R,2R)-2-(4-Chloro-2-fluoro-phenyl)-cyclopropanecarbonyl]-3-isobutyl-6-isopropyl-piperazin-2-one], the CC90 at 8 days in series [1] was > 10000 nM. Moreover, the concentration for an effect of 90% (EC90) with HCV Replicon 1b stood at 660 nM.
For `CC(C)C[C@H]1C(=O)N[C@@H](c2ccccc2)CN1C(=O)[C@@H]1C[C@H]1c1ccc(Cl)cc1F` [Compound 255, (3S,6S)-4-[(1R,2R)-2-(4-Chloro-2-fluoro-phenyl)-cyclopropanecarbonyl]-3-isobutyl-6-phenyl-piperazin-2-one], the CC90 at 8 days in series [1] was > 10000 nM. In the series on HCV Replicon 1b, the concentration for an effect of 90% (EC90) worked out at 360 nM.
The corresponding values for `CC(C)C[C@H]1CN(C(=O)[C@@H]2C[C@H]2c2ccc(F)cc2F)[C@@H](CC(C)C)C(=O)N1` [Compound 256, (3S,6S)-4-[(1R,2R)-2-(2,4-Difluoro-phenyl)-cyclopropanecarbonyl]-3,6-diisobutyl-piperazin-2-one] are > 10000 nM and 220 nM.
